Data published in ChEMBL document CHEMBL6083236, “Identification of novel diarylpyrimidine derivatives as potent HIV-1 non-nucleoside reverse transcriptase inhibitors against wild-type and K103N mutant viruses” (Eur J Med Chem, 2024).

Legend:
[1] = tested on: Human immunodeficiency virus 1; assay: Antiviral activity against wild type HIV1 IIIB infected in human MT4 cells assessed as reduction in virus induced cytopathic effect incubated for 5 days by Spectrophotometric based MTT assay; type: functional, organism-based; conditions: Human immunodeficiency virus 1, IIIB, MT4, 120 h
[2] = tested on: Human immunodeficiency virus 1; assay: Antiviral activity against HIV1 harboring RES056 mutant infected in human MT4 cells assessed as reduction in virus induced cytopathic effect incubated for 5 days by Spectrophotometric based MTT assay; type: functional, organism-based; conditions: Human immunodeficiency virus 1, RES056, MT4, 120 h
MT4 = assay: Cytotoxicity against human MT4 cells assessed as reduction in cell viability incubated for 5 days by Spectrophotometric based MTT assay; type: functional; conditions: MT4, 120 h, time 5 day
[3] = Selectivity index, ratio of CC50 for cytotoxicity against human MT4 cells to EC50 for antiviral activity against wild type HIV1 IIIB infected in human MT4 cells
[4] = Selectivity index, ratio of CC50 for cytotoxicity against human MT4 cells to EC50 for antiviral activity against HIV1 RES056 mutant infected in human MT4 cells
[5] = tested on: Human immunodeficiency virus 1; assay: Antiviral activity against HIV1 harboring L100I mutant infected in human MT4 cells assessed as reduction in virus induced cytopathic effect incubated for 5 days by Spectrophotometric based MTT assay; type: functional, organism-based; conditions: Human immunodeficiency virus 1, MT4, 120 h
[6] = tested on: Human immunodeficiency virus 1; assay: Antiviral activity against HIV1 harboring K103 N mutant infected in human MT4 cells assessed as reduction in virus induced cytopathic effect incubated for 5 days by Spectrophotometric based MTT assay; type: functional, organism-based; conditions: Human immunodeficiency virus 1, MT4, 120 h
[7] = tested on: Human immunodeficiency virus 1; assay: Antiviral activity against HIV1 harboring Y181C mutant infected in human MT4 cells assessed as reduction in virus induced cytopathic effect incubated for 5 days by Spectrophotometric based MTT assay; type: functional, organism-based; conditions: Human immunodeficiency virus 1, MT4, 120 h
[8] = tested on: Human immunodeficiency virus 1; assay: Antiviral activity against HIV1 harboring Y188L mutant infected in human MT4 cells assessed as reduction in virus induced cytopathic effect incubated for 5 days by Spectrophotometric based MTT assay; type: functional, organism-based; conditions: Human immunodeficiency virus 1, MT4, 120 h
[9] = tested on: Human immunodeficiency virus 1; assay: Antiviral activity against HIV1 harboring E138K mutant infected in human MT4 cells assessed as reduction in virus induced cytopathic effect incubated for 5 days by Spectrophotometric based MTT assay; type: functional, organism-based; conditions: Human immunodeficiency virus 1, MT4, 120 h
[10] = tested on: Human immunodeficiency virus 1; assay: Antiviral activity against HIV1 harboring F227L/V106A mutant infected in human MT4 cells assessed as reduction in virus induced cytopathic effect incubated for 5 days by Spectrophotometric based MTT assay; type: functional, organism-based; conditions: Human immunodeficiency virus 1, MT4, 120 h
[11] = molecular target: Human immunodeficiency virus type 1 reverse transcriptase (Human immunodeficiency virus 1, UniProt Q72547); assay: Inhibition of wild type HIV1 reverse transcriptase assessed as inhibition of biotin deoxyuridine triphosphate incorporation into cDNA using DIG-labelled dNTP preincubated with compound for 1 hr followed by substrate addition in presence of biotin-labeled dNTPs by ELISA analysis

Structure (SMILES)	EC50 [1] [nM]	EC50 [2] [nM]	CC50 (MT4) [nM]	selectivity ratio ([3]; MT4 cells)	selectivity ratio ([4]; MT4 cells)	EC50 [5] [nM]	EC50 [6] [nM]	EC50 [7] [nM]	EC50 [8] [nM]	EC50 [9] [nM]	EC50 [10] [nM]	IC50 [11] [nM]	selectivity ratio ([3]; mt4)	selectivity ratio ([4]; mt4)
COP(=O)(OC)N1CCN(c2ccc(Nc3nccc(Oc4c(C)cc(/C=C/C#N)cc4C)n3)cc2C#N)C(=O)C1	250	> 23200	23200	94	–	–	–	–	–	–	–	–	–	–
Cc1cc(/C=C/C#N)cc(C)c1Oc1ccnc(Nc2ccc(N3CCSCC3)c(C#N)c2)n1	9	450	> 267000	> 30300	> 596	21	6	40	3000	49	66	–	–	–
CC(=O)N1CCN(c2ccc(Nc3nccc(Oc4c(C)cc(/C=C/C#N)cc4C)n3)cc2C#N)CC1	5	550	6640	1280	12	62	3	65	> 6640	30	44	–	–	–
Cc1cc(/C=C/C#N)cc(C)c1Oc1ccnc(Nc2ccc(N3CC[S+]([O-])CC3)c(C#N)c2)n1	5	2190	97800	19300	45	22	4	46	> 97800	26	190	–	–	–
Cc1cc(/C=C/C#N)cc(C)c1Oc1ccnc(Nc2ccc(N3CCN(C)CC3)c(C#N)c2)n1	20	> 3940	3940	195	–	–	–	–	–	–	–	–	–	–
Cc1cc(/C=C/C#N)cc(C)c1Oc1ccnc(Nc2ccc(N3CCCC3)c(C#N)c2)n1	54	5320	270000	5010	51	–	–	–	–	–	–	–	–	–
CSC1CN(c2ccc(Nc3nccc(Oc4c(C)cc(/C=C/C#N)cc4C)n3)cc2C#N)C1	6	2710	> 267000	> 45200	> 99	18	6	53	> 267000	39	150	–	–	–
Cc1cc(/C=C/C#N)cc(C)c1Oc1ccnc(Nc2ccc(N3CCS(=O)(=O)CC3)c(C#N)c2)n1	2	260	58200	–	–	4	2	12	> 58300	9	58	160	–	–
Cc1cc(/C=C/C#N)cc(C)c1Oc1ccnc(Nc2ccc(N3CCC(F)(F)CC3)c(C#N)c2)n1	31	1270	> 257000	> 8290	–	–	–	–	–	–	–	–	–	–
CC(=O)C1CCN(c2ccc(Nc3nccc(Oc4c(C)cc(/C=C/C#N)cc4C)n3)cc2C#N)CC1	5	1490	5120	1070	3	65	12	150	> 5120	110	75	–	–	–
Cc1cc(/C=C/C#N)cc(C)c1Oc1ccnc(Nc2ccc(N3CC(F)C3)c(C#N)c2)n1	9	520	170000	20000	328	48	10	49	> 170000	63	330	–	–	–
COC1CN(c2ccc(Nc3nccc(Oc4c(C)cc(/C=C/C#N)cc4C)n3)cc2C#N)C1	22	> 44200	> 44200	> 2050	–	–	–	–	–	–	–	–	–	–
Cc1cc(/C=C/C#N)cc(C)c1Oc1ccnc(Nc2ccc(N3CCSCC3=O)c(C#N)c2)n1	13	920	45300	3410	49	–	–	–	–	–	–	–	–	–
Cc1cc(/C=C/C#N)cc(C)c1Oc1ccnc(Nc2ccc(N3CC(C#N)C3)c(C#N)c2)n1	13	> 44700	> 44700	> 3480	–	–	–	–	–	–	–	–	–	–
Cc1cc(/C=C/C#N)cc(C)c1Oc1ccnc(Nc2ccc(N3CCCCC3)c(C#N)c2)n1	43	4480	> 277000	> 6380	> 62	–	–	–	–	–	–	–	–	–
Cc1cc(/C=C/C#N)cc(C)c1Oc1ccnc(Nc2ccc(N3CCC(C(F)(F)F)CC3)c(C#N)c2)n1	40	17600	> 241000	> 6100	> 14	–	–	–	–	–	–	–	–	–
Cc1cc(/C=C/C#N)cc(C)c1Oc1ccnc(Nc2ccc(N3CCC(S(C)(=O)=O)CC3)c(C#N)c2)n1	9	820	6440	725	8	35	18	40	2830	42	65	–	–	–
Cc1cc(/C=C/C#N)cc(C)c1Oc1ccnc(Nc2ccc(N3CCC(C#N)CC3)c(C#N)c2)n1	9	1390	> 42100	> 4560	> 30	230	13	130	> 42100	110	290	–	–	–
Cc1cc(/C=C/C#N)cc(C)c1Oc1ccnc(Nc2ccc(N3CCOCC3=O)c(C#N)c2)n1	3	140	26600	9540	191	13	4	23	2600	15	330	–	–	–
Cc1cc(/C=C/C#N)cc(C)c1Oc1ccnc(Nc2ccc(N3CCS(=O)(=O)CC3=O)c(C#N)c2)n1	4	910	34000	8130	37	83	3	140	18400	130	250	–	–	–
Cc1cc(/C=C/C#N)cc(C)c1Oc1ccnc(Nc2ccc(N3CCC(F)CC3)c(C#N)c2)n1	14	1480	> 267000	> 18800	> 181	–	–	–	–	–	–	–	–	–
Cc1cc(/C=C/C#N)cc(C)c1Oc1ccnc(Nc2ccc(N3CC[S+]([O-])CC3=O)c(C#N)c2)n1 (stereo unspecified)	15	2810	26400	1780	9	–	–	–	–	–	–	–	–	–
COC1CCN(c2ccc(Nc3nccc(Oc4c(C)cc(/C=C/C#N)cc4C)n3)cc2C#N)CC1	6	> 6890	6890	1080	–	130	13	160	4860	190	150	–	–	–
Cc1cc(/C=C/C#N)cc(C)c1Oc1ccnc(Nc2ccc(N3CCN(C=O)CC3)c(C#N)c2)n1	4	930	15900	4350	17	16	20	53	2980	48	98	–	–	–
Cc1cc(/C=C/C#N)cc(C)c1Oc1ccnc(Nc2ccc(N3CCN(S(C)(=O)=O)CC3=O)c(C#N)c2)n1	4	1520	25600	5910	17	100	5	310	> 25600	94	280	–	–	–
O=C1Nc2ccc(Cl)cc2[C@@](C#CC2CC2)(C(F)(F)F)O1 [EFAVIRENZ]	–	450	> 6340	–	–	35	100	6	–	–	290	–	–	–
Cc1cc(C#N)cc(C)c1Oc1nc(Nc2ccc(C#N)cc2)nc(N)c1Br [ETRAVIRINE]	–	81	> 4590	–	–	–	5	–	35	25	28	–	–	–
Cc1ccnc2c1NC(=O)c1cccnc1N2C1CC1 [NEVIRAPINE]	–	> 15000	> 15000	–	–	3450	9010	4880	> 15000	–	> 15000	–	–	–
Cc1cn([C@H]2C[C@H](N=[N+]=[N-])[C@@H](CO)O2)c(=O)[nH]c1=O [ZIDOVUDINE]	35	35	> 7480	–	–	–	–	–	–	–	–	–	> 212	> 214
